Patent US10689390B2, “Tricyclic fused derivatives of 1-(cyclo)alkyl pyridin-2-one useful for the treatment of cancer” (JUBILANT BIOSYS LIMITED, priority 2015, dated 2020)
Blank lines part the entries; values can stand above or below the molecule they belong to.

How the values were obtained:
BRD4-BD1 = BRD4-BD1 (Homo sapiens (Human), UniProt O60885); assay: BRD4 AlphaLISA (Perkin Elmer); format: binding; conditions: 5 nM BRD4-BD1, 12 nM biotinylated substrate, read-out: BRD4_BD1 IC50_μM
Procedure: BRD4 AlphaLISA (Perkin Elmer)
Compounds were diluted by step-down dilution method (final concentration of DMSO was 1%) and added to the wells of a 384 well opti plate at desired concentrations. 5 nM BDR4-BD1 enzyme (produced in-house) and 12 nM of biotinylated substrate were added to the wells, covered and incubated at room temperature (RT) for 1 h. At the end of 1 h 250 ng of GSH acceptor beads were added to the well and incubated for 1 h at RT; then 500 ng of streptavidin donor beads were added and incubated again for 1 h at RT. Plates were read in a Pherastar reader at 680 nm excitation and 570 nm emission. As detailed above, compounds were tested for both BRD4 enzyme inhibitory activities and IC50 were determined.

AML cell line MV4-11 = assay: Anticancer activity: Alamar Blue 3-day proliferation assay; format: cell-based; conditions: Homo sapiens, MV4-11 cells, 72 h incubation, read-out: MV4-11 EC50_μM
Procedure: Anticancer Activity: Alamar Blue Assay
The impact of the compounds on cancer cell proliferation was determined using the AML cell line MV4-11 (ATCC) in a 3-day proliferation assay. MV4-11 cells were maintained in RPMI supplemented with 10% FBS at 37° C., 5% CO2. For compound testing, MV4-11 cells were plated in a 96-well black bottom plate at a density of 15,000 cells/well in 100 μL culture media and incubated at 37° C. overnight. Compound dilution series were prepared in DMSO via a 3-fold serial dilution from […]. The DMSO dilution series were then diluted with media, with the final compound concentrations added to the wells ranging from […]. […] The fluorescent readings from the Alamar Blue assay were normalized to the DMSO treated cells and analyzed using the GraphPad Prism software with sigmoidal curve fitting to obtain EC50.

SMILES: CCOC(=O)CC1OC(c2ccc(Cl)cc2)c2cc(OC)ccc2-c2cn(C)c(=O)cc21 (racemic) [Compound 1, ±Ethyl 2-(-7-(4-chlorophenyl)-9-methoxy-2-methyl-3-oxo-2,3,5,7-tetrahydrobenzo[5,6]oxepino[4,3-c]pyridin-5-yl)acetate]
IC50 (BRD4-BD1): 24 nM

SMILES: CCOC(=O)CC1OC(C2CCCCC2)c2cc(OC)ccc2-c2cn(C)c(=O)cc21 (racemic) [Compound 2, ±Ethyl-2-(7-cyclohexyl-9-methoxy-2-methyl-3-oxo-2,3,5,7-tetrahydrobenzo[5,6]oxepino[4,3-c]pyridin-5-yl)acetate]
IC50 (BRD4-BD1): 10 nM
EC50 (AML cell line MV4-11): 1 nM

SMILES: CCNC(=O)CC1OC(c2ccc(C)cn2)c2cc(OC)ccc2-c2cn(C)c(=O)cc21 (racemic) [Compound 11, ±2-(9-methoxy-2-methyl-7-(5-methylpyridin-2-yl)-3-oxo-2,3,5,7-tetrahydrobenzo[5,6]oxepino[4,3-c]pyridin-5-yl)-N-ethylacetamide]
IC50 (BRD4-BD1): 61 nM
EC50 (AML cell line MV4-11): 175 nM

SMILES: CCNC(=O)CC1N=C(c2ccc(Cl)cc2)c2cc(OC)ccc2-c2cn(C)c(=O)cc21 (racemic) [Compound 25, ±2-(7-(4-chlorophenyl)-9-methoxy-2-methyl-3-oxo-3,5dihydro-2H-benzo[c]pyrido[3,4-e]azepin-5-yl)-N-ethylacetamide]
EC50 (AML cell line MV4-11): 3 nM

SMILES: COc1ccc2c(c1)C(c1ccc(Cl)cc1)=NC(CC(N)=O)c1cc(=O)n(C)cc1-2 (racemic) [Compound 28, ±2-(7-(4-chlorophenyl)-9-methoxy-2-methyl-3-oxo-3,5-dihydro-2H-benzo[c]pyrido[3,4-e]azepin-5-yl)acetamide]
IC50 (BRD4-BD1): 36 nM
EC50 (AML cell line MV4-11): 326 nM

SMILES: CCNC(=O)CC1N=C(c2ccc(Cl)cc2)c2cc(C(F)(F)F)ccc2-c2cn(C)c(=O)cc21 (racemic) [Compound 35, ±2-(7-(4-chlorophenyl)-2-methyl-3-oxo-9-(trifluoromethyl)-3,5-dihydro-2H-benzo[c]pyrido[3,4-e]azepin-5-yl)-N-ethylacetamide]
IC50 (BRD4-BD1): 77 nM
EC50 (AML cell line MV4-11): 40 nM

SMILES: CCNC(=O)CC1N=C(c2ccc(Cl)cc2)c2cc(F)ccc2-c2cn(C)c(=O)cc21 (racemic) [Compound 37, ±2-(7-(4-chlorophenyl)-9-fluoro-2-methyl-3-oxo-3,5-dihydro-2H-benzo[c]pyrido[3,4-e]azepin-5-yl)-N-ethylacetamide]
IC50 (BRD4-BD1): 4 nM
EC50 (AML cell line MV4-11): 28 nM

SMILES: CCNC(=O)C[C@H]1O[C@H](c2ccc(Cl)cc2)c2cc(OC)ccc2-c2cn(C)c(=O)cc21 [Compound 8F, 2-((5R,7R)-7-(4-chlorophenyl)-9-methoxy-2-methyl-3-oxo-2,3,5,7-tetrahydrobenzo[5,6]oxepino[4,3-c]pyridin-5-yl)-N-ethylacetamide]
IC50 (BRD4-BD1): 12 nM
EC50 (AML cell line MV4-11): 24 nM

The remaining lines, values ahead:

EC50 (AML cell line MV4-11): 2 nM
SMILES: CCOC(=O)CC1N=C(c2ccc(Cl)cc2)c2cc(OC)ccc2-c2cn(C)c(=O)cc21 (racemic) [Compound 14, ±-Ethyl-2-(7-(4-chlorophenyl)-9-methoxy-2-methyl-3-oxo-3,5-dihydro-2H-benzo[c]pyrido[3,4-e]azepin-5-yl)acetate]

IC50 (BRD4-BD1): 122 nM
SMILES: CCOC(=O)CC1N=C(C(F)(F)F)c2cc(OC)ccc2-c2cn(C)c(=O)cc21 (racemic) [Compound 18, ±Ethyl-2-(9-methoxy-2-methyl-3-oxo-7-(trifluoromethyl)-3,5-dihydro-2H-benzo[c]pyrido[3,4-e]azepin-5-yl)acetate]

IC50 (BRD4-BD1): 176 nM
SMILES: CCOC(=O)CC1N=C(C)c2cc(OC)ccc2-c2cn(C)c(=O)cc21 (racemic) [Compound 19, ±Ethyl-2-(9-methoxy-2,7-dimethyl-3-oxo-3,5-dihydro-2H-benzo[c]pyrido[3,4-e]azepin-5-yl)acetate]

IC50 (BRD4-BD1): 1 nM
EC50 (AML cell line MV4-11): 5 nM
SMILES: CCOC(=O)CC1N=C(c2c(F)cccc2F)c2cc(OC)ccc2-c2cn(C)c(=O)cc21 (racemic) [Compound 23, ±Ethyl-2-(7-(2,6-difluorophenyl)-9-methoxy-2-methyl-3-oxo-3,5-dihydro-2H-benzo[c]pyrido[3,4-e]azepin-5-yl)acetate]

IC50 (BRD4-BD1): 2 nM
EC50 (AML cell line MV4-11): 8 nM
SMILES: CCNC(=O)CC1N=C(C2CCCCC2)c2cc(OC)ccc2-c2cn(C)c(=O)cc21 (racemic) [Compound 26, ±2-(7-cyclohexyl-9-methoxy-2-methyl-3-oxo-3,5-dihydro-2H-benzo[c]pyrido[3,4-e]azepin-5-yl)-N-ethylacetamide]

IC50 (BRD4-BD1): 4.4 nM
EC50 (AML cell line MV4-11): 112 nM
SMILES: CCNC(=O)CC1N=C(c2ccccn2)c2cc(OC)ccc2-c2cn(C)c(=O)cc21 (racemic) [Compound 27, ±2-(9-methoxy-2-methyl-3-oxo-7-(pyridin-2-yl)-3,5-dihydro-2H-benzo[c]pyrido[3,4-e]azepin-5-yl)-N-ethylacetamide]

IC50 (BRD4-BD1): 10 nM
EC50 (AML cell line MV4-11): 118 nM
SMILES: CCNC(=O)CC1N=C(CC2CC2)c2cc(OC)ccc2-c2cn(C)c(=O)cc21 (racemic) [Compound 30, ±2-(7-(cyclopropylmethyl)-9-methoxy-2-methyl-3-oxo-3,5-dihydro-2H-benzo[c]pyrido[3,4-e]azepin-5-yl)-N-ethylacetamide]

IC50 (BRD4-BD1): 49 nM
EC50 (AML cell line MV4-11): 108 nM
SMILES: CCNC(=O)CC1N=C(C(F)(F)F)c2cc(OC)ccc2-c2cn(C)c(=O)cc21 (racemic) [Compound 32, ±2-(9-methoxy-2-methyl-3-oxo-7-(trifluoromethyl)-3,5-dihydro-2H-benzo[c]pyrido[3,4-e]azepin-5-yl)-N-ethylacetamide]

IC50 (BRD4-BD1): < 0.5 nM
EC50 (AML cell line MV4-11): 13 nM
SMILES: CCNC(=O)CC1N=C(c2c(F)cccc2F)c2cc(OC)ccc2-c2cn(C)c(=O)cc21 (racemic) [Compound 38, ±2-(7-(2,6-difluorophenyl)-9-methoxy-2-methyl-3-oxo-3,5-dihydro-2H-benzo[c]pyrido[3,4-e]azepin-5-yl)-N-ethylacetamide]

IC50 (BRD4-BD1): 4 nM
EC50 (AML cell line MV4-11): 8 nM
SMILES: CCNC(=O)CC1N=C(c2ccc(Cl)cc2C)c2cc(OC)ccc2-c2cn(C)c(=O)cc21 (racemic) [Compound 39, ±2-(7-(4-chloro,2-methylphenyl)-9-methoxy-2-methyl-3-oxo-3,5-dihydro-2H-benzo[c]pyrido[3,4-e]azepin-5-yl)-N-ethylacetamide]
